Where two headings read alike, the source gives them in different places.
What was measured:
[1] = molecular target: human IDO (Homo sapiens, UniProt P14902); assay: Cell based IDO/kynurenine assay in IDO-293-T-Rex cells; conditions: kynurenine production, read-out: hIDO EC50
Procedure, shortened: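 293-T-REx cells stably carrying doxycycline-inducible human or murine IDO were incubated with inhibitors in induction medium for 16 h at 37° C. Medium was TCA-treated at 60° C and reacted with p-dimethylaminobenzaldehyde. Kynurenine was quantified by absorbance at 480 nm.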

[2] = molecular target: T1, murine IDO (Mus musculus, UniProt P28776); assay: Cell based IDO/kynurenine assay in 293-T-Rex cells expressing murine IDO; conditions: cells expressing murine IDO, read-out: mIDO EC50
T1 construct: expressed in transfected cells; host or cells: 293-T-REx cells (Invitrogen), doxycycline-inducible CMV-tet promoter
Description: Transfected cells were selected in DBZ medium (DMEM, 10% FBS, 1× Penicillin+Streptomycin, 2 mM L-glutamine, 5 μg/mL blasticidin and 25 μg/ml Zeocin) at 37° C. with a 5% CO2 in air atmosphere. Individual clones were isolated by limiting dilution cloning from these populations.
The cells incubated in Neutral medium serve as negative control of the assay. The cells incubated in Induction medium and without inhibitor serve as the positive control of the assay. The incubation is carried out for 16 h at 37° C. in a cell culture incubator. 200 μL of medium are transferred to U-bottom polypropylene 96-well plates containing 25 μL of 30% TCA, incubated 30 minutes at 60° C. and centrifuged at 3400 g for 5 minutes. 150 μL of the clear supernatant is transferred to a polystyrene 96-well plate containing 50 μL of 4% (w/v) of p-dimethylaminobenzaldehyde in acetic acid, incubated for 10 min. Kynurenine concentration is determined by measuring the absorbance at 480 nm.

[3] = molecular target: purified human IDO protein (Homo sapiens, UniProt P14902); assay: Enzymatic IDO assay (kynurenine production, absorbance 480 nm); conditions: enzymatic activity
[4] = Table 15, 293T cells expressing human IDO
[5] = hIDO IC50, Table 15, recombinant human IDO
[6] = Table 16, 293T cells expressing human IDO
[7] = hIDO IC50, Table 16, recombinant human IDO

purified human IDO protein, sequence (P14902 whole entry P110S/E119G): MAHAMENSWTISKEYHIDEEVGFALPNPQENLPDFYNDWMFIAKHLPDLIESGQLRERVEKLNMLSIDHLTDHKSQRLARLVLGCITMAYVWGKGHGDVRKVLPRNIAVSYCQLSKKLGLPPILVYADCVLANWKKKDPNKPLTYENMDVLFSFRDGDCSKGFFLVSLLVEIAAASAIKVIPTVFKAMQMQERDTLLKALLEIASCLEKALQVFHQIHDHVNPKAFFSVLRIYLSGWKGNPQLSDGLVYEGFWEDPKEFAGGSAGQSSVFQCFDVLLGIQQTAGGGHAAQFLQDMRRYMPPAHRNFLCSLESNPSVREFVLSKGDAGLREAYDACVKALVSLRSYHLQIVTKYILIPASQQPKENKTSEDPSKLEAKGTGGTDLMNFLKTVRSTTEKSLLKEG
T1 sequence (P28776 whole entry): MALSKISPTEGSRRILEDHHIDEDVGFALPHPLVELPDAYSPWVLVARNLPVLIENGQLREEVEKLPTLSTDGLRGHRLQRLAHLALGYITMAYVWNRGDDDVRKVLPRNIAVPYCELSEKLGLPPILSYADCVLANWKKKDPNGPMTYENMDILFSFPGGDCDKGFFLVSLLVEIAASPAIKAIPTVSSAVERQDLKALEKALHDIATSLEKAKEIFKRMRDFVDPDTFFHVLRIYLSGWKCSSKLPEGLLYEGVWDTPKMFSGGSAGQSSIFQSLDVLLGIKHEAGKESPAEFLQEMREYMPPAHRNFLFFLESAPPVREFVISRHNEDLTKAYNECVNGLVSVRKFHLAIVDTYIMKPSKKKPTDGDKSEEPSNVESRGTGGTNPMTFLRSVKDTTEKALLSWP
human IDO, sequence (P14902 whole entry): as the sequence (P14902 whole entry P110S/E119G) above, with S110P, G119E counted along it

Row | Compound | EC50 [1, 4] [µM] | EC50 ([2]; Table 15) [µM] | IC50 [3, 5] [µM] | EC50 [1, 6] [µM] | EC50 ([1]; 293T cell line stably expressing human IDO, values reported in ranges) [µM] | EC50 ([2]; Table 16) [µM] | IC50 [3, 7] [µM] | IC50 ([3]; hIDO IC50, recombinant human IDO, values reported in ranges) [µM]
1 | NOC1CCCc2ccccc21 (centres unmarked) [compound 1895, O-(1,2,3,4-tetrahydronaphthalen-1-yl)hydroxylamine] | < 10 | 10 to 100 | < 10 |  |  |  |  | 
2 | NOCc1cccc([N+](=O)[O-])c1 [compound 317, O-(3-nitrobenzyl)hydroxylamine] |  |  |  | < 10 | < 20 | < 10 | < 10 | < 20
3 | NOCc1cc(Cl)ccc1-c1ccccc1 [compound 1916, O-((4-chlorobiphenyl-2-yl)methyl)hydroxylamine] | < 10 | 10 to 100 | < 10 |  |  |  |  | 
4 | NOCc1ccccc1NCc1ccccc1 [compound 1662, 2-(aminooxymethyl)-N-benzylaniline] | < 10 | 100 to 1000 | < 10 |  |  |  |  | 
5 | NOC(c1ccccc1)c1ccccc1 [compound 1922, O-benzhydrylhydroxylamine] |  |  |  | < 10 |  | < 10 | < 10 | 
6 | NOCc1cccc(C(F)(F)F)c1 [compound 1775, O-(3-(trifluoromethyl)benzyl)hydroxylamine] |  |  |  | < 10 |  | < 10 | < 10 | 
7 | CNC(=O)CCC(ON)c1ccccc1 (centres unmarked) [compound 1898, 4-(aminooxy)-N-methyl-4-phenylbutanamide] | < 10 | 10 to 100 | 10 to 100 |  |  |  |  | 
8 | NOCc1ccc(F)cc1 [compound 774, O-(4-fluorobenzyl)hydroxylamine] |  |  |  | < 10 |  | < 10 | < 10 | 
9 | NOCc1c(F)cccc1Cl [compound 1674, O-(2-chloro-6-fluorobenzyl)hydroxylamine] | < 10 | 10 to 100 | 10 to 100 |  |  |  |  | 
10 | CNC(=O)C(ON)c1ccccc1 (centres unmarked) [compound 1897, 2-(aminooxy)-N-methyl-2-phenylacetamide] | < 10 | < 10 | < 10 |  |  |  |  | 
11 | NOC(Cc1ccccc1)c1ccccc1 (centres unmarked) [compound 1921, O-(1,2-diphenylethyl)hydroxylamine] | < 10 | 10 to 100 | < 10 |  |  |  |  | 
12 | NOCC1CCc2ccccc2O1 (centres unmarked) [compound 1768, O-(chroman-2-ylmethyl)hydroxylamine] | < 10 | < 10 | < 10 |  |  |  |  | 
13 | C=CCC(ON)c1cccc([N+](=O)[O-])c1 (centres unmarked) [compound 1755, O-(1-(3-nitrophenyl)but-3-enyl)hydroxylamine] |  |  |  | < 10 |  | < 10 | < 10 | 
14 | NOC(CCc1ccccc1)c1ccccc1 (centres unmarked) [compound 1924, O-(1,3-diphenylpropyl)hydroxylamine] | < 10 | 10 to 100 | < 10 |  |  |  |  | 
15 | NOCc1cccc(CON)c1 [compound 1823, O,O′-(1,3-phenylenebis(methylene))bis(hydroxylamine)] |  |  |  | 10 to 100 |  | < 10 | 10 to 100 | 
16 | NOCc1ccc(F)c(Cl)c1 [compound 1673, O-(3-chloro-4-fluorobenzyl)hydroxylamine] |  |  |  | < 10 |  | > 1000 | 100 to 1000 | 

Row | Compound | EC50 [1, 4] [µM] | EC50 ([2]; Table 15) [µM] | IC50 [3, 5] [µM] | EC50 [1, 6] [µM] | EC50 ([1]; 293T cell line stably expressing human IDO, values reported in ranges) [µM] | EC50 ([2]; Table 16) [µM] | IC50 [3, 7] [µM] | IC50 ([3]; hIDO IC50, recombinant human IDO, values reported in ranges) [µM]
17 | NOCc1cccc(NCc2ccccc2)c1 [compound 1872, 3-(aminooxymethyl)-N-benzylaniline] | < 10 | < 10 | < 10 |  |  |  |  | 
18 | NOCc1cccc(Nc2ccccc2)c1 [compound 1829, 3-(aminooxymethyl)-N-phenylaniline] | < 10 | < 10 | < 10 |  |  |  |  | 
19 | COC(=O)c1ccc(CON)cc1 [compound 1684, methyl 4-(aminooxymethyl)benzoate] |  |  |  | < 10 |  | 10 to 100 | < 10 | 
20 | NOCc1cc(Cl)ccc1-c1ccccc1Cl [compound 1915, O-((2′,4-dichlorobiphenyl-2-yl)methyl)hydroxylamine] | 10 to 100 | 100 to 1000 | < 10 |  |  |  |  | 
21 | NOCc1cc(Cl)ccc1-c1ccc(Cl)cc1 [compound 1892, O-((4,4′-dichlorobiphenyl-2-yl)methyl)hydroxylamine] | < 10 | < 10 | < 10 |  |  |  |  | 
22 | NOCc1ccncc1 [compound 1737, O-(pyridin-4-ylmethyl)hydroxylamine] | < 10 | < 10 | 10 to 100 |  |  |  |  | 
23 | NOCc1cc(Cl)ccc1-c1ccc(Cl)c(Cl)c1 [compound 1919, O-((3′,4,4′-trichlorobiphenyl-2-yl)methyl)hydroxylamine] | < 10 | 10 to 100 | < 10 |  |  |  |  | 
24 | NOCc1cccc(-c2ccccc2)c1 [compound 1825, O-(biphenyl-3-ylmethyl)hydroxylamine] | < 10 | 10 to 100 | < 10 |  |  |  |  | 
25 | NOCc1ccc2ncccc2c1 [compound 1741, O-(quinolin-6-ylmethyl)hydroxylamine] | < 10 | < 10 | 10 to 100 |  |  |  |  | 
26 | NOCc1ccc2c(c1)OCCO2 [compound 1750, O-((2,3-dihydrobenzo[b][1,4]dioxin-6-yl)methyl)hydroxylamine] | < 10 | 10 to 100 | 10 to 100 |  |  |  |  | 
27 | NOCc1ccc([N+](=O)[O-])cc1 [compound 1014, O-(4-nitrobenzyl)hydroxylamine] |  |  |  | < 10 |  | 10 to 100 | 10 to 100 | 
28 | NOCCc1cccc([N+](=O)[O-])c1 [compound 1752, O-(3-nitrophenethyl)hydroxylamine] |  |  |  | < 10 |  | < 10 | < 10 | 
29 | NOCc1cc(Cl)ccc1-c1cccc(Cl)c1 [compound 1918, O-((3′,4-dichlorobiphenyl-2-yl)methyl)hydroxylamine] | < 10 | 10 to 100 | < 10 |  |  |  |  | 
30 | COc1ccc(-c2ccc(Cl)cc2CON)cc1 [compound 1914, O-((4-chloro-4′-methoxybiphenyl-2-yl)methyl)hydroxylamine] | < 10 | 10 to 100 | < 10 |  |  |  |  | 
31 | COc1ccc(-c2cccc(CON)c2)cc1 [compound 1882, O-((4′-methoxybiphenyl-3-yl)methyl)hydroxylamine] | < 10 | 10 to 100 | < 10 |  |  |  |  | 

Further lines, results first:

Row | EC50 [1, 4] [µM] | EC50 ([2]; Table 15) [µM] | IC50 [3, 5] [µM] | EC50 [1, 6] [µM] | EC50 ([1]; 293T cell line stably expressing human IDO, values reported in ranges) [µM] | EC50 ([2]; Table 16) [µM] | IC50 [3, 7] [µM] | IC50 ([3]; hIDO IC50, recombinant human IDO, values reported in ranges) [µM] | Compound
32 | < 10 | 10 to 100 | < 10 |  |  |  |  |  | NOCc1ccc(F)cc1Cl [compound 1676, O-(2-chloro-4-fluorobenzyl)hydroxylamine]
33 | < 10 | 10 to 100 | < 10 |  |  |  |  |  | NOCc1ccccc1Nc1ccccc1 [compound 1871, 2-(aminooxymethyl)-N-phenylaniline]
34 |  |  |  | 10 to 100 |  | 10 to 100 | 10 to 100 |  | NOCc1ccccc1CON [compound 1822, O,O′-(1,2-phenylenebis(methylene))bis(hydroxylamine)]
35 |  |  |  | < 10 |  | 10 to 100 | < 10 |  | NOCc1cccc2ccccc12 [compound 1767, O-(naphthalen-1-ylmethyl)hydroxylamine]
36 |  |  |  | < 10 |  | 10 to 100 | < 10 |  | NOCc1ccccc1[N+](=O)[O-] [compound 811, O-(2-nitrobenzyl)hydroxylamine]
37 |  |  |  | < 10 |  | < 10 | < 10 |  | NOCc1ccccc1 [compound 1666, O-benzylhydroxylamine]
38 |  |  |  | < 10 |  | < 10 | < 10 |  | COc1cccc(CON)c1 [compound 1682, O-(3-methoxybenzyl)hydroxylamine]
39 | < 10 | < 10 | < 10 |  |  |  |  |  | NOCc1nc2ccccc2s1 [compound 1749, O-(benzo[d]thiazol-2-ylmethyl)hydroxylamine]
40 |  |  |  | < 10 |  | 10 to 100 | 10 to 100 |  | Cc1cccc(CON)c1 [compound 1692, O-(3-methylbenzyl)hydroxylamine]
41 | < 10 | < 10 | 10 to 100 |  |  |  |  |  | NOCc1ccccn1 [compound 1739, O-(pyridin-2-ylmethyl)hydroxylamine]
42 | 10 to 100 | 10 to 100 | < 10 |  |  |  |  |  | NOc1cccc2ccccc12 [compound 1903, O-(naphthalen-1-yl)hydroxylamine]
43 |  |  |  | < 10 |  | 10 to 100 | 10 to 100 |  | COc1ccccc1CON [compound 1678, O-(2-methoxybenzyl)hydroxylamine]
44 | < 10 | < 10 | 10 to 100 |  |  |  |  |  | Cc1nc(-c2ccccc2)ncc1CON [compound 1740, O-((4-methyl-2-phenylpyrimidin-5-yl)methyl)hydroxylamine]
45 | < 10 | < 10 | < 10 |  |  |  |  |  | NOCc1cc2ccccc2o1 [compound 1774, O-(benzofuran-2-ylmethyl)hydroxylamine]

— patent US20130289083A1, “IDO Inhibitors” (priority 2007, published 2013)
